Source: patent US5378694A, “Acyl and alkoxy substituted quinolines” (Schering Corporation, priority 1993, dated 1995)
Where two headings read alike, the source gives them in different places.

How the values were obtained:
HSV-2, strain MS = test: In vivo anti-HSV efficacy, prophylactic guinea pig model of HSV infection; settings: 60 mg per kg s.c., T.I.D., 10 days; for Neurological Dysfunction (%): percentage of animals developing loss of bladder/hindlimb control, placebo 66; for MLS (Maximum Lesion Scores): scale of 1 to 4, first dose 24 hours before infection, placebo 2.22
Description: The in vivo assessment of anti-HSV efficacy was determined in the prophylactic guinea pig model of HSV infection described by Stansberry et al. (1982). Dosing of guinea pigs comprised an initial treatment with test compound given 24 hours prior to virus infection and subsequent administration of the compound every eight hours (T.I.D.) for a total of 10 days. Test compounds were administered subcutaneously in 0.5% buffered methyl cellulose at a dose of 60 mg per kg body weight of the animal. Animals were monitered daily for the development of genital lesions and neurological symptomology, both of which were recorded and compared to the results obtained with parallel groups which received placebo or acyclovir. Efficacy was evaluated for each compound by scoring the ability of the compound to ameliorate genital lesions produced by infection with HSV-2, strain MS, expressed as Maximum Lesson Scores (MLS) on a scale of 1 (least lessions) to 4 (severe lessons).

[1] = Compound toxicity assay: inhibition of HeLa cell translation (3H-LEU assay); type: cell-based; settings: human; HeLa cells, cellular translational activity; read-out: CYTOTOXICITY 3H-LEU ASSAY IC50
Description: HeLa cells were treated with inhibitory compound for 24 hours, after which levels of translational activity were assayed.
For assay of translational activity, HeLa cultures were grown to 80% confluency in 96 well microtiter plates, treated with appropriate concentrations of compound in 2% EMEM during an overnight incubation at 37° C., then rinsed with HBSS and overlaid with […] of 2% EMEM containing 8 μCi of tritiated leucine (^3 H-LEU, 141 Cu/mMol, Amersham Corp., Arlington Heights Ill.). After a 1 hour incubation at 36.5° C., the cells were rinsed twice with phosphate-buffered saline (PBS) and lysed in 400 ul/well of 1 × PBS, 0.5% sodium dodecyl sulphate (SDS). After a 10 min incubation at 36.5° C., the contents of the well were transferred to a well in a Millititer HA microfiltration plate (Millipore Corp., Bedford, Mass.). The TCA-insolubleproteins were precipitated onto the filter disc by a 10 min fixation with 5% TCA, followed by filtration under vacuum and three 10 minute rinses with 95% ethanol. The filters were dried at room temperature, cut from the milltitier plate and transferred to scintillation vials. TCA-precipitable counts were assayed in 5 ml of Scintisol (Isolab, Akron, Ohio). The inhibitory activity of a compound was plotted versus the concentration and an IC50 value (that concentration of the compound required to decrease cellular translational activity by 50%) was derived for each compound.

[2] = SHR assay, blood pressure in conscious spontaneously hypertensive rats; type: in vivo, rat (spontaneously hypertensive rats; settings: P.O.
Description: The ability of the compounds to lower blood pressure can be assessed in vivo in conscious spontaneously hypertensive rats (SHRs). SHR males are purchased from Taconic Farms, Germantown, N.Y. and are approximately 16-18 weeks old when anesthetized with ether. The caudal (ventral tail) artery is cannulated with polyethylene tubing (PE50), and blood pressure and heart rate are recorded as described by Baum, T. et. al., J. Cardiovasc. Pharmacol., Vol 5, pp. 655-667 (1983). Rats are placed into plastic cylindrical cages where they rapidly recover consciousness. Blood pressure and heart rate are allowed to stabilize for approximately 90 minutes prior to administration of the test compound. Compounds are administered orally as solutions or suspensions in 0.4% aqueous methylcellulose vehicle via a feeding needle. The compound or 0.4% aqueous methylcellulose vehicle is given in a volume of 4 ml/kg to SHRs that been fasted overnight. Activity is expressed as the fall in mean blood pressure (MBP) in millimeters of mercury (mm Hg). Compound-induced changes are compared with the changes in an appropriate placebo group.

[3] = biological target: T1, cGMP phosphodiesterase (cGMP-PDE) (Bos taurus, UniProt Q28156); test: Phosphodiesterase inhibition in vitro (cGMP-PDE); type: biochemical; settings: bovine lung cGMP-PDE; 1 μM 3H-cGMP, pH 7.5, 25 minutes, room temperature
T1 construct: is a homogeneous enzyme obtained from bovine lung; from tissue; host or cells: bovine lung

HSV-2 (strain MS) = test: Transient expression of beta galactosidase in transfected HeLa cells superinfected with HSV-2 (HSV-β-Gal assay); type: cell-based; settings: 24 hours
Description: HeLa and Vero cell cultures were maintained in Eagles Minimal Essential Medium (EMEM) which was supplemented with glutamine, penicillin, streptomycin and 10% fetal calf serum (10% EMEM). Stock cultures of HSV-2 (strain MS available from ATCC VR-540) were grown in and harvested from Vero cells. Viral stocks were titered in Vero cells according to established procedures.
Plasmid pON^ori- 245 contains the promoter of the HSV-1 thymidine kinase (tk) gene located immediately 5' of the E. coli lac Z gene. In this arrangement, the tk promoter controls transcription from the bacterial gene in transient expression assays. Additionally, an SV40 polyadenylation signal is present at the 3' end of the lac Z gene to allow for the efficient translation of the mRNA in eucaryotic cells. The expression of beta galactosidase in a transient assay using pON 245^ori- is dependent upon superinfection of the transfected cells with HSV. […] For example, see European Patent Application No. 88302149.5 filed Mar. 11, 1988 and published Sep. 14, 1988 as 282,330, the disclosure of which is incorporated herein by reference thereto.
HeLa cells were seeded into 96 well microtiter plates and allowed to grow to 80% confluency (approximately 35000 cells/well). One half microgram of plasmid pON 245^ori- DNA was introduced into the cells of each well by the […] precipitation technique (Grabman and Van der Eb, 1973). Four to six hours later, the cells were rinsed with Hank's Balanced Salt Solution (HBSS), overlaid with 10% EMEM and incubated at 37° C. At 24 hours post-transfection, cells were rinsed, overlaid with 10% EMEM again and re-incubated at 37° C. At 48 hours post-transfection, cells were rinsed and overlaid with either EMEM containing 2% fetal calf serum (2% EMEM), 2% EMEM containing HSV-2 (strain MS, Multiplicity of Infection [moi]=5 pfu/cell) or 2% EMEM containing HSV-2 and the appropriate concentration of the compound to be tested. Twenty-four hours later, the cells were harvested and assayed for beta-galactosidase activity as described below.
All determinations of beta galactosidase activity were performed in 96-well microtiter plates. The intracellular level of beta-galactosidase activity in each well was determined from cell lysates of the monolayer cultures. Aliquots were assayed by incubation in the presence of beta-galactosidase substrate, 4-methylumbelliferyl-β-D-galactoside (MUG, 125 ug/ml, Sigma), for 2 hours. The generation of fluorescent product was quantified on a Microfluor microfluorimeter (Dynatech) after addition of 0.1M glycine, pH 10.3 (Spaete and Mocarski, 1985). The inhibitory activity of a compound was plotted versus the concentration and an IC50 value (the concentration in mcg/ml of compound required to reduce beta-galactosidase expression by 50%) was obtained for each compound tested.

herpes virus = settings: mammals; cited from earlier work
HSV = settings: humans; cited from earlier work
HSV-2 = settings: against HSV-2; cited from earlier work
HSV-1 = settings: against HSV-1; cited from earlier work
[4] = Human alphaherpesvirus 2, moi 5 pfu/cell, read-out: ANTI-HSV ACTIVITY HSV-β-Gal ASSAY IC50
[5] = Human alphaherpesvirus 2, Repeat, moi 5 pfu/cell, read-out: ANTI-HSV ACTIVITY HSV-β-Gal ASSAY IC50 (repeat)

Row | IC50 (HSV-2 (strain MS); [4]) [µg/mL] | Structure (SMILES) | CC50 at 24 h [1] [µg/mL] | further results
1 |  | Nc1nc2c(ncn2COCCO)c(=O)[nH]1 [Acyclovir, 9-[(2-hydroxyethoxy)methyl]guanine, reference compound] |  | Neurological Dysfunction (%) (HSV-2, strain MS): 44%; MLS (Maximum Lesion Scores) (HSV-2, strain MS): 1.61
2 | 3 | Cc1cccc2c(O)c(C=O)c(=O)n(Cc3ccccc3)c12 [Formula 1.3] | 29 | Fall in MBP ([2]; 25 mpk): 7 mm Hg; IC50 [3]: 10 µM
3 | 4 | CCCCCCCn1c(=O)c(C=O)c(O)c2ccccc21 [Formula 1.4] | 32 | IC50 (HSV-2 (strain MS); [5]): 4 µg/mL
4 | 4 | Cc1ccc2c(c1)c(O)c(C=O)c(=O)n2Cc1ccccc1 [Formula 1.5] | 16 | Fall in MBP ([2]; 50 mpk): 40 mm Hg; IC50 [3]: 90 µM
5 | 4 | O=Cc1c(O)c2cc(Cl)ccc2n(Cc2ccccc2)c1=O [Formula 1.6] | 15 | Fall in MBP ([2]; 25 mpk): 48 mm Hg; IC50 [3]: 17 µM
6 | 7 | Cn1c(=O)c(C=O)c(O)c2ccccc21 [Formula 1.7] | 56 | IC50 (HSV-2 (strain MS); [5]): 7 µg/mL
7 | 7 | O=Cc1c(O)c2ccccc2n(Cc2ccccc2)c1=O [Formula 1.8] | 29 | 
8 | 8 | O=Cc1c(O)c2ccccc2n(-c2ccccc2)c1=O [Formula 1.9] | 12 | Neurological Dysfunction (%) (HSV-2, strain MS): 0%; MLS (Maximum Lesion Scores) (HSV-2, strain MS): 0.67; IC50 [3]: 18 µM
9 | 10 | O=Cc1c(O)c2cc(OCc3ccccc3)ccc2n(Cc2ccccc2)c1=O [Formula 1.10] | 32 | 
10 | 8 | CCCCCCn1c(=O)c(C=O)c(O)c2ccccc21 [Formula 1.11] | 20 | 
11 | 13 | O=Cc1c(O)c2cc(O)ccc2n(Cc2ccccc2)c1=O [Formula 1.12] |  | 
12 | 18 | COc1ccc(OCCCOCn2c(=O)c(C=O)c(O)c3ccccc32)c(Cl)c1 [Formula 1.14] |  | 
13 | 5 | O=Cc1c(O)c2ccc(Cl)cc2n(Cc2ccccc2)c1=O [Formula 1.15] | 23 | 
14 | 7 | CC1(C)C(=O)C(C=O)=C(O)c2ccccc21 [Formula 1.16] | 34 | 
15 |  | CCN(CC)CC(=O)Nc1c(C)cccc1C [lidocaine, 2-(diethylamino)-N-(2,6-dimethylphenyl)acetamide] |  | treatment of herpes virus infections (in words) (herpes virus): able to treat herpes virus infections of mammals; treatment of HSV oral and genital lesions (in words) (HSV): particularly effective in the treatment of HSV oral and genital lesions in humans; antiviral activity in cell culture (in words) (HSV-2): antiviral agent in cell culture against HSV-1 and HSV-2; antiviral activity in cell culture (in words) (HSV-1): antiviral agent in cell culture against HSV-1 and HSV-2
